Measurements as given in patent US20090004145A1, “COMPOSITIONS AND METHODS INVOLVING GENE THERAPY AND PROTEASOME MODULATION” (priority 2006, published 2009).
Where a SMILES comes first, the peptide text is derived from it. The star is where a group is joined. Cbz = O=C(OCc1ccccc1)*

Test system: MDA-7 protein in 2008 cells
Assay: Western blotting of MDA-7 protein expression
Type: cell-based, human
Details: 48 h, vs Ad-mda7 alone
Protocol: FIG. 11. Inhibition of the proteasomal activity by MG132 results in increased ubiquitinated MDA-7 protein expression in CDDP-sensitive tumor cells but not in CDDP-resistant tumor cells. FIG. 11A, CDDP-resistant (2008/C*13 R) and sensitive (2008) ovarian tumor cells were plated in six-well plates and were treated with PBS, MG132, Ad-mda7, or Ad-mda7 plus MG132. At 48 h after treatment cells were harvested, lysates and supernatants prepared and subjected to MDA-7 and total ubiquitinated protein detection by western blotting and proteasome activity assay using commercially available kit. […] However, the MDA-7 protein was increased in 2008 cells when treated with MG132 plus Ad-mda7. […] FIG. 11B, CDDP-resistant (2008/C*13 R) and sensitive (2008) ovarian tumor cells were plated in six-well plates and were treated with PBS, MG132, Ad-p53, or Ad-p53 plus MG132. At 48 h after treatment cells were harvested, lysates and supernatants prepared and subjected to p53 protein detection by western blotting and proteasome activity using commercially available kit. […] However, the p53 protein was increased in 2008 cells when treated with MG132 plus Ad-p53.
FIG. 18. […] CDDP-sensitive (2008) ovarian tumor cells were plated in six-well plates. […]
FIG. 21. […] MDA-7 protein was detected in cells that were treated with Ad-mda7. […]

CC(C)C[C@@H](C=O)NC(=O)[C@H](CC(C)C)NC(=O)[C@H](CC(C)C)NC(=O)OCc1ccccc1 [MG132] (Cbz-Leu-Leu-Leu-aldehyde)
MDA-7 protein expression with proteasome inhibitor: significantly increased
